Consider eleven molecules from ChEMBL document CHEMBL1201862, “PubChem BioAssay data set” (2004).

Among the test systems are ACHN; CCRF-CEM; EKVX; K562; M14; NCI-H23; NCI-H460; NCI-H522; OVCAR-3; SK-MEL-5; SN12C; SNB-75; SW-620; UO-31; XF498; DU-145; HCT-116; HOP-92; MDA-MB-435; MDA-N.
Common to all, as to experiment: NCI anticancer screen, dose series, 48 h

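How tested: cells in 96-well plates exposed to compound for 48 hours at five concentrations. GI50 = concentration required for 50% inhibition of growth.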 Active and inactive are the calls of the source. No stated cut-off is given here; in the data, active = GI50 up to about 1.1 µM and inactive = higher.

For `[O-][S+]1c2ccccc2N=C(c2ccc3ccccc3c2)CC1C1=CC=CCC1` (stereo unspecified), the GI50 in the experiment on ACHN is 19 µM (inactive); with CCRF-CEM, 7.19 µM (inactive); in the experiment on EKVX, 22.7 µM (inactive); with K562 it was 10.3 µM (inactive); with M14, 18.7 µM (inactive); with NCI-H23, 14.6 µM (inactive). Besides, the GI50 with NCI-H460 is 20.3 µM (inactive); in the experiment on NCI-H522 it was 16.9 µM (inactive); in the experiment on OVCAR-3, 16.9 µM (inactive); in the experiment with SK-MEL-5 it was 16.6 µM (inactive); with SN12C, 17.4 µM (inactive); with SNB-75, 17.9 µM (inactive). In addition, the GI50 is 18.4 µM (inactive) in the experiment with SW-620, 13.8 µM (inactive) in the experiment with UO-31 and 17.1 µM (inactive) in the experiment with XF498.

Turning to `CCOC(=O)CCc1cc(=O)oc2cc(O)cc(O)c12`, the GI50 with ACHN was > 100 µM (inactive); with CCRF-CEM it was > 100 µM (inactive); with DU-145, > 100 µM (inactive); in the experiment on EKVX, 62.5 µM (inactive); with HCT-116, > 100 µM (inactive); in the experiment on HOP-92 it was > 100 µM (inactive). Besides, the GI50 in the experiment with K562, in the experiment on M14, in the experiment with MDA-MB-435, with MDA-N, in the experiment with NCI-H23 and in the experiment with NCI-H460 was > 100 µM (inactive) each time. For the same molecule, the GI50 in the experiment with NCI-H522, in the experiment on OVCAR-3, in the experiment with SK-MEL-5, in the experiment with SN12C, with SNB-75 and in the experiment on SW-620 was > 100 µM (inactive) throughout. Besides, in the experiment with UO-31, the GI50 was > 100 µM (inactive).

As to `COc1ccc(OC)c(-c2nc3n(c2/C=C2/C(=O)Nc4ccccc42)CCS3)c1`, the GI50 in the experiment on ACHN is 90.6 µM (inactive); in the experiment with CCRF-CEM, 35 µM (inactive); in the experiment with DU-145 it was 64.4 µM (inactive); in the experiment with EKVX, > 100 µM (inactive); with HCT-116, 45.2 µM (inactive); with HOP-92 it was 48.6 µM (inactive). Also, the GI50 was 37.4 µM (inactive) with K562; 37.4 µM (inactive) in the experiment on M14; 17.5 µM (inactive) in the experiment on MDA-MB-435; 18.2 µM (inactive) with MDA-N; > 100 µM (inactive) in the experiment on NCI-H23; 35 µM (inactive) in the experiment on NCI-H460. Also, the GI50 in the experiment on NCI-H522 is 34 µM (inactive); with OVCAR-3, 36.1 µM (inactive); in the experiment on SK-MEL-5, 53.5 µM (inactive); in the experiment with SN12C it was 65.8 µM (inactive); in the experiment on SNB-75, 22.3 µM (inactive); in the experiment on SW-620 it was 40.9 µM (inactive). Further, the GI50 in the experiment with UO-31 is 41.4 µM (inactive).

On to `CCOC(=O)C(Cc1ccc(N(CCCl)CCCl)cc1)NC(=O)CCCN1C(=O)CN=C(c2ccccc2)c2cc(Cl)ccc21` (stereo unspecified), for which the GI50 in the experiment with ACHN is 7.08 µM (inactive); in the experiment with CCRF-CEM it was 2.61 µM (inactive); in the experiment on DU-145, 14.9 µM (inactive); with EKVX it was 41.3 µM (inactive); in the experiment with HCT-116 it was 21 µM (inactive); with HOP-92, 3.77 µM (inactive). Further, the GI50 with K562 is 6.32 µM (inactive); with M14, 7 µM (inactive); in the experiment on MDA-MB-435, 16.1 µM (inactive); in the experiment with MDA-N, 6.11 µM (inactive); in the experiment with NCI-H23, 9.66 µM (inactive); in the experiment on NCI-H460, 5.35 µM (inactive). In addition, the GI50 is 3.03 µM (inactive) with NCI-H522; 2.22 µM (inactive) with OVCAR-3; 12.4 µM (inactive) in the experiment with SK-MEL-5; 4.43 µM (inactive) with SN12C; 15.8 µM (inactive) in the experiment with SNB-75; 10.2 µM (inactive) in the experiment with SW-620. Besides, in the experiment with UO-31, the GI50 was 13.8 µM (inactive).

For the molecule `COc1ccc2cc(CN3CCC(C4CCNCC4)CC3)ccc2c1`, the GI50 in the experiment with ACHN is 3.61 µM (inactive); with CCRF-CEM, 1.96 µM (inactive); with DU-145 it was 4.2 µM (inactive); in the experiment with EKVX, 5.02 µM (inactive); in the experiment with HCT-116, 1.8 µM (inactive); with HOP-92 it was 1.79 µM (inactive). The GI50 is 0.959 µM (active) in the experiment on K562; 2.06 µM (inactive) with M14; 1.91 µM (inactive) in the experiment on MDA-MB-435; 2.02 µM (inactive) in the experiment on MDA-N; 12 µM (inactive) in the experiment on NCI-H23; 1.93 µM (inactive) in the experiment with NCI-H460. The GI50 in the experiment on NCI-H522 was 2.17 µM (inactive); in the experiment on OVCAR-3, 5.41 µM (inactive); in the experiment on SK-MEL-5, 1.79 µM (inactive); in the experiment with SN12C it was 6.85 µM (inactive); in the experiment with SNB-75, 1.91 µM (inactive); in the experiment on SW-620, 1.82 µM (inactive). Moreover, the GI50 in the experiment with UO-31 was 2.45 µM (inactive).

As to `CCc1ccc(/C=C/C(=O)C2CN(CC)CCC2(O)/C=C/c2ccc(CC)cc2)cc1` (stereo unspecified), the GI50 was 1.95 µM (inactive) in the experiment on ACHN; 1.87 µM (inactive) with CCRF-CEM; 9.55 µM (inactive) in the experiment with DU-145; 4.75 µM (inactive) in the experiment with EKVX; 1.79 µM (inactive) in the experiment with HCT-116; 1.71 µM (inactive) in the experiment on HOP-92. The GI50 in the experiment with K562 is 2.52 µM (inactive); in the experiment with M14 it was 2.61 µM (inactive); with MDA-MB-435 it was 1.88 µM (inactive); with MDA-N it was 3.23 µM (inactive); with NCI-H23 it was 4.61 µM (inactive); in the experiment with NCI-H460 it was 2.22 µM (inactive). Besides, the GI50 in the experiment with NCI-H522 was 2.59 µM (inactive); with OVCAR-3, 1.71 µM (inactive); in the experiment with SK-MEL-5, 4.36 µM (inactive); with SN12C, 4.09 µM (inactive); in the experiment with SNB-75, 9.33 µM (inactive); in the experiment with SW-620 it was 1.88 µM (inactive). The GI50 in the experiment with UO-31 was 3.2 µM (inactive).

For `Cc1cc(C)c(-c2noc(-c3ccc(Cl)cc3)c2C2=NCCCN2)c(C)c1`, the GI50 in the experiment with ACHN was 17.6 µM (inactive); in the experiment on CCRF-CEM it was 20.6 µM (inactive); in the experiment on EKVX, 18 µM (inactive); in the experiment with HCT-116, 4.57 µM (inactive); with K562 it was 14.8 µM (inactive); with M14, 2.47 µM (inactive). Further, the GI50 with NCI-H23 is 17.9 µM (inactive); with NCI-H460 it was 11.7 µM (inactive); with NCI-H522 it was 20 µM (inactive); in the experiment on OVCAR-3 it was 28 µM (inactive); in the experiment on SK-MEL-5, 10.4 µM (inactive); in the experiment on SN12C it was 19.1 µM (inactive). For the same molecule, the GI50 in the experiment on SW-620 was 23.4 µM (inactive); in the experiment with UO-31, 16.2 µM (inactive); in the experiment with XF498 it was 12.2 µM (inactive).

`Oc1cc(-c2ccc(F)cc2)nc2ncc(Cl)cc12`: the GI50 was > 73.1 µM (inactive) in the experiment with ACHN; 18.7 µM (inactive) in the experiment on CCRF-CEM; 21.4 µM (inactive) with DU-145; 30.3 µM (inactive) in the experiment with EKVX; 9.51 µM (inactive) with HCT-116; 2.94 µM (inactive) in the experiment on HOP-92. The GI50 with K562 was 4.21 µM (inactive); in the experiment with M14, 26.9 µM (inactive); with MDA-MB-435, 2.82 µM (inactive); in the experiment with MDA-N it was 2.94 µM (inactive); in the experiment with NCI-H23, 38.2 µM (inactive); with NCI-H460, 15.4 µM (inactive). Also, the GI50 in the experiment with NCI-H522 was 10.5 µM (inactive); in the experiment with OVCAR-3 it was 20.6 µM (inactive); in the experiment with SK-MEL-5, 6.93 µM (inactive); with SN12C it was > 84.1 µM (inactive); with SNB-75, 11.7 µM (inactive); in the experiment with SW-620, 11.1 µM (inactive). Further, the GI50 in the experiment with UO-31 was > 85.9 µM (inactive).

Consider `CCOC(=O)/C=C/[C@H](O[Si](c1ccccc1)(c1ccccc1)c1ccccc1)C(C)(C)C`, for which the GI50 in the experiment with ACHN was > 31.6 µM (inactive); in the experiment on CCRF-CEM it was 15.8 µM (inactive); in the experiment on DU-145, > 31.6 µM (inactive); in the experiment with EKVX, > 31.6 µM (inactive); in the experiment with HCT-116, 22.5 µM (inactive); in the experiment on HOP-92, > 31.6 µM (inactive). Moreover, the GI50 was 7.78 µM (inactive) in the experiment on K562; 73.8 µM (inactive) in the experiment on M14; > 31.6 µM (inactive) in the experiment with MDA-MB-435; > 31.6 µM (inactive) in the experiment with MDA-N; > 31.6 µM (inactive) in the experiment on NCI-H23; > 10 µM (inactive) in the experiment with NCI-H460. For the same molecule, the GI50 with NCI-H522 was > 31.5 µM (inactive); in the experiment with OVCAR-3, > 31.6 µM (inactive); in the experiment with SK-MEL-5, 10.2 µM (inactive); in the experiment with SN12C it was > 31.6 µM (inactive); with SNB-75, > 31.6 µM (inactive); with SW-620, > 31.6 µM (inactive). Further, the GI50 with UO-31 is > 31.6 µM (inactive).

As for `C=C1C(=O)OC2/C=C(\CO)C3OC3C3OC3(C)CC(OC(=O)/C(=C/C)CO)C12` (stereo unspecified), the GI50 is 49.5 µM (inactive) with ACHN; 9.33 µM (inactive) in the experiment on CCRF-CEM; > 100 µM (inactive) with DU-145; 44 µM (inactive) in the experiment on EKVX; 35.8 µM (inactive) with HCT-116; > 100 µM (inactive) with HOP-92. For the same molecule, the GI50 was 24.8 µM (inactive) in the experiment with K562; > 100 µM (inactive) with M14; 53.8 µM (inactive) in the experiment on MDA-MB-435; 36.6 µM (inactive) in the experiment with MDA-N; 60.3 µM (inactive) in the experiment on NCI-H23; > 100 µM (inactive) in the experiment on NCI-H460. Besides, the GI50 with NCI-H522 was 15.8 µM (inactive); with OVCAR-3, > 100 µM (inactive); in the experiment with SK-MEL-5, > 100 µM (inactive); in the experiment with SN12C it was > 100 µM (inactive); with SNB-75, > 100 µM (inactive); with SW-620, 30.1 µM (inactive). Moreover, the GI50 with UO-31 is > 100 µM (inactive).

As for `Cc1nc2cccc(F)c2c(=O)n1-c1nnc(C2CC2)s1`, the GI50 with ACHN, in the experiment on CCRF-CEM, in the experiment with DU-145, with EKVX, with HCT-116 and in the experiment with HOP-92 was > 10 µM (inactive) throughout. Further, the GI50 with K562, with M14, in the experiment on MDA-MB-435, in the experiment on MDA-N, in the experiment on NCI-H23 and in the experiment on NCI-H460 was > 10 µM (inactive) each time. The GI50 in the experiment on NCI-H522, in the experiment with OVCAR-3, in the experiment with SK-MEL-5, in the experiment on SN12C, in the experiment with SNB-75 and in the experiment with SW-620 was > 10 µM (inactive) throughout. Moreover, in the experiment on UO-31, the GI50 is > 10 µM (inactive).
